Test results from US11230547B2, “Purine inhibitors of human phosphatidylinositol 3-kinase delta” (Merck Sharp & Dohme Corp., priority 2017, dated 2022).

Assays:
PI3Kdelta = PI3Kdelta (Homo sapiens (Human), UniProt O00329); test: HTRF PI3K biochemical assay, delta isoform; settings: 0.3 nM enzyme, 100 uM ATP, 5 uM PIP2, form screened per table
Excerpt: (§1) HTRF PI3K Biochemical Assay to Measure Intrinsic Potency of Compound Inhibitors
(§2) The PI3-Kinase biochemical assays were developed to measure the intrinsic potency and compound dependent inhibition of the alpha, beta, delta, and gamma PI3K isoform enzymes. This assay was developed and further optimized from a kit produced by Upstate (Millipore catalog #33-047) (Millipore Sigma, Billerica Mass., USA) and has been configured for high throughput screening (HTS) and structure-activity relationship (SAR) screening. Briefly, this procedure exploits the exquisite specificity and high affinity binding of […] phosphatidyl(3,4,5)triphosphate (PIP3) to the GRP1 pleckstrin homology (PH) domain to generate the signal. In the absence of PIP3, an HTRF (Homogeneous Time-Resolved Fluorescence energy transfer) complex is formed consisting of europium (u)-labeled anti-GST, GST tagged GRP1-PH domain, biotin-PIP3 (biotinylated-PIP3) and streptavidin conjugated APC (Allophycocyanin). The native PIP3 produced by PI3-Kinase activity disrupts in a competitive manner the biotin-PIP3 from the pleckstrin homology (PH) domain, resulting in the loss of energy transfer (HTRF complex) and a decrease in the signal. The format of this assay is the same for all 4 isoforms of PI3K; the differences lie in the concentration of enzyme used to achieve robust assay window. The alpha, beta, and delta assays are run at 0.5, 1, and 0.3 nM enzymes and the gamma assay is run at 5 nM enzyme. The ATP concentration is 100 uM in the alpha, beta, and delta assays and 50 uM adenosine triphosphate (ATP) in the gamma assay. All reactions are run at 5 uM PIP2.
(§3) Compounds are serially diluted (3-fold in 100% DMSO) across a 384-well polypropylene source plated from column 3 to column 12 and column 13 to column 22, to yield 10 concentration dose response for each test compound. Columns 1, 2, 23 and 24 contain either only DMSO or pharmacological known control inhibitor. Once titrations are made, 2.5 nL of the compounds on 384 well plates are reformatted and transferred by acoustic dispense in quadruplicates to a 1536 assay plate (Greiner) to assay across all four PI3K isoform enzymes.
(§4) The PI3-Kinase biochemical assay was optimized using the HTRF kit provided by Upstate (Millipore). The assay kit contains six reagents: 1) 4× Reaction Buffer; 2) native PIP2 (substrate); 3) Stop (EDTA); 4) Detection Mix A (Streptavidin-APC); 5) Detection Mix B (Eu-labeled Anti-GST plus GST-tagged PH-domain); 6) Detection Mix C. In addition, the following items were obtained or purchased; PI3Kinase (catalog #'s alpha 14-602, beta 14-603, gamma 14-558 and delta 14-604 from Upstate Biotechnology now EMD Millipore, Mahopac, N.Y., USA), dithiothreitol (Sigma-Aldrich Corp. (St. Louis, Mo., USA) Catalog #D-5545), Adenosine-5′ triphosphate (InVitrogen (Waltham, Mass., USA), Cat#AS001A), native PIP3 (PI(3,4,5)P3, diC8, H^+, CELLSIGNALS, INC., (Columbus, Ohio, USA) Cat #907) DMSO ((Sigma-Aldrich Corp. (St. Louis, Mo., USA) Catalog #472301).
(§5) PI3Kinase Reaction Buffer is prepared by dilution the stock 1:4 with de-ionized water. DTT (DL-Dithiothreitol), phosphatidylinositol 4,5-bisphosphate (PIP2) and Biotin-PIP3 were added to 1536 assay plate at a final concentration of 5 mM, […] and 25 nM on the day of use. Enzyme addition and compound pre-incubation are initiated by the addition of 1.25 ul of PI3K (at twice its final concentration) in the 1× reaction buffer to all wells using a BioRaptr™ (Beckman Coulter, Waltham, Mass. USA). Plates are incubated at room temperature for 15 minutes. Reactions are initiated by addition of 1.25 ul of 2× substrate solution (PIP2 and ATP in 1× reaction buffer) using BioRaptr™. Plates are incubated in humidified chamber at room temperature for one hour. Reactions are quenched by addition of 0.625 uL of stop solution to all wells using the BioRaptr™. […]

PI3Kalpha = PI3Kalpha (Homo sapiens (Human), UniProt P42336); test: HTRF PI3K biochemical assay, alpha isoform (selectivity versus delta); settings: relative ratio PI3K-alpha IC50 value / PI3K-delta IC50 value
PI3Kalpha, sequence (P42336 whole entry, canonical isoform): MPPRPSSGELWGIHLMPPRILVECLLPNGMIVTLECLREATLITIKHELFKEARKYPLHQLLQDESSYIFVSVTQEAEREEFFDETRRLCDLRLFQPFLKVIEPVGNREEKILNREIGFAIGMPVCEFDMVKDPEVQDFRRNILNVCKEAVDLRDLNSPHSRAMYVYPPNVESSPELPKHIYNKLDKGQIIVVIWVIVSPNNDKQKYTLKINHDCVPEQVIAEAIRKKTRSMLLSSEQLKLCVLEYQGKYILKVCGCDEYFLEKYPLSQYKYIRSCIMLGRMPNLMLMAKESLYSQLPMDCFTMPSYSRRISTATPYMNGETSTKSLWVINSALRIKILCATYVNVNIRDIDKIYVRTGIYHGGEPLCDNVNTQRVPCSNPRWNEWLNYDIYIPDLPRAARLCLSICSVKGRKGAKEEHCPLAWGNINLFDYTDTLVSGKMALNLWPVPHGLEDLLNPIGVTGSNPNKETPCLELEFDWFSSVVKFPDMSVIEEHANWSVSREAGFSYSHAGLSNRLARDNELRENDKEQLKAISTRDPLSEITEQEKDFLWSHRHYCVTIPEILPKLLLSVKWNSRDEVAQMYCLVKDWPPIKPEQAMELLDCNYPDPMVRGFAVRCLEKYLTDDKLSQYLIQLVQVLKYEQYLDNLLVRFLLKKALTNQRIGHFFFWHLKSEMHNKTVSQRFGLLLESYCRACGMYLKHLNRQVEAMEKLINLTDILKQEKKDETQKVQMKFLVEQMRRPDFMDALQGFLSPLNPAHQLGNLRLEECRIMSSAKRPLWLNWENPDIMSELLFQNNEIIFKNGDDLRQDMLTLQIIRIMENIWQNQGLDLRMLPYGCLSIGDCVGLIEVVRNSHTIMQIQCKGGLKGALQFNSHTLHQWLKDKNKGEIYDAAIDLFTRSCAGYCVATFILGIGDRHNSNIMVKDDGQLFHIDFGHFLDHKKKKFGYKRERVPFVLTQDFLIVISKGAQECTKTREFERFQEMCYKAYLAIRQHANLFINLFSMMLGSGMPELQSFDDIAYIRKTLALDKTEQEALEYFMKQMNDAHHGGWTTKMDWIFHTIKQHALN
PI3Kalpha, sequence (P27986 whole entry partner, canonical isoform): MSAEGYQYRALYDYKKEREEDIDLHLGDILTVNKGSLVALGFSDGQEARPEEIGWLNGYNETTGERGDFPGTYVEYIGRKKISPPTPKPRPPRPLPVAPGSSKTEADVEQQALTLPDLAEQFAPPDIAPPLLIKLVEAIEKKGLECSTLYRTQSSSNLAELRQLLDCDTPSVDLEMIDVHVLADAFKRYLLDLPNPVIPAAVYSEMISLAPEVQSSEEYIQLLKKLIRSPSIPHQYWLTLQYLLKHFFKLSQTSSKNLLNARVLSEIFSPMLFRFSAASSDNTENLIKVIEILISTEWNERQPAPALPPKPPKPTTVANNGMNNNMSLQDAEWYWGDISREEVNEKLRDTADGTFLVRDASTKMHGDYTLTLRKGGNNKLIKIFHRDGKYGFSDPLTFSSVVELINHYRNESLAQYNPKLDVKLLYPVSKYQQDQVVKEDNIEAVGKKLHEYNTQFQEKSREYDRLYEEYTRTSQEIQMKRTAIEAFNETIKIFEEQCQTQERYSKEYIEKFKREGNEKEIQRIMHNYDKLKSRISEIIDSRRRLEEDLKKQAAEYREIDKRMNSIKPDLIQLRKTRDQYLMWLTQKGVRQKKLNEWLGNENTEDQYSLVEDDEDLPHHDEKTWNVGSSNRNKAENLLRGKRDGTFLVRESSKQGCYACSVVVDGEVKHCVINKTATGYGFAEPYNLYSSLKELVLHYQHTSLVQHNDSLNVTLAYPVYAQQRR
Excerpt: as §1, §2, §3, §4, §5

PI3Kdelta, sequence (O00329 whole entry, canonical isoform): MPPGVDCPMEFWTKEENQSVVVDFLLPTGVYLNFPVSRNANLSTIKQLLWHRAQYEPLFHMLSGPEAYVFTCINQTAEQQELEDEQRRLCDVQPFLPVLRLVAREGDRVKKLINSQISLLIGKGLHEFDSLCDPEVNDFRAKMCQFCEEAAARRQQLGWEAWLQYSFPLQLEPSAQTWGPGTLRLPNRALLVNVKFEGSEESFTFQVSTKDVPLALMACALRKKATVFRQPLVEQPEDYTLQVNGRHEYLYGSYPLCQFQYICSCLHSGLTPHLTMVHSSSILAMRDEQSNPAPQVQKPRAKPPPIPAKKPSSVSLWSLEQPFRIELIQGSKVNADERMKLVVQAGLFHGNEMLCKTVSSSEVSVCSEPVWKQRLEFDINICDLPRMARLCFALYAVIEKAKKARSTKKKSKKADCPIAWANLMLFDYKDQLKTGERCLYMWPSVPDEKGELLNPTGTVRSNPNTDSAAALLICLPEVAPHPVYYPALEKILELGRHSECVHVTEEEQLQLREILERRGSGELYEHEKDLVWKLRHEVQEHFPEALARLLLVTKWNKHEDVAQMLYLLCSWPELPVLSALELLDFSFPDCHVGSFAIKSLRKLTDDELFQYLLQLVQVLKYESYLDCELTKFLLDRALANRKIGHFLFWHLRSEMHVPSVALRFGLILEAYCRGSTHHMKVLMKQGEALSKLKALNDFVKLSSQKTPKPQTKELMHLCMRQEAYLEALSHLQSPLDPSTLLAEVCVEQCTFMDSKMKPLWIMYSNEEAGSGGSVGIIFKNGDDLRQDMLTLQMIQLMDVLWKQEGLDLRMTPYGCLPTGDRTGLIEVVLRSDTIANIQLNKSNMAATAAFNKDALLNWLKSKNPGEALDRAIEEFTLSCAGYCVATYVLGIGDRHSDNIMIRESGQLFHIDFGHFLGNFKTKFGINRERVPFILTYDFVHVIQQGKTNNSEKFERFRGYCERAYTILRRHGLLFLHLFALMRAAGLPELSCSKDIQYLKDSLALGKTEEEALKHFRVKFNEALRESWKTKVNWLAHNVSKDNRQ
PI3Kdelta, sequence (P27986 whole entry partner, canonical isoform): as the sequence (P27986 whole entry partner, canonical isoform) above

Structure (SMILES)	IC50 (PI3Kdelta) [µM]	Selectivity versus PI3Kalpha (PI3Kalpha)
Cn1cc(-c2ncc(C#N)c(N3CCN(c4cccc(F)c4)C(C)(C)C3)n2)cn1 [Compound 3-1, 4-[4-(3-fluorophenyl)-3,3-dimethylpiperazin-1-yl]-2-(1-methyl-1H-pyrazol-4-yl)pyrimidine-5-carbonitrile]	1.5	8
Cn1cc(-c2ncc(C#N)c(N3CCN(c4cccc(F)c4)CC3)n2)cn1 [Compound 3-2, 4-[4-(3-fluorophenyl)piperazin-1-yl]-2-(1-methyl-1H-pyrazol-4-yl)pyrimidine-5-carbonitrile]	1.6	7
C[C@@H]1CN(c2nc(-c3cnn(C)c3)ncc2C#N)CCN1c1cccc(F)c1 [Compound 3-3, 4-[(3R)-4-(3-fluorophenyl)-3-methylpiperazin-1-yl]-2-(1-methyl-1H-pyrazol-4-yl)pyrimidine-5-carbonitrile]	0.17	>10
Cn1cc(-c2ncc(C#N)c(N3CC4CCC(C3)N4c3cccc(F)c3)n2)cn1 [Compound 3-4, 4-[8-(3-fluorophenyl)-3,8-diazabicyclo[3.2.1]oct-3-yl]-2-(1-methyl-1H-pyrazol-4-yl)pyrimidine-5-carbonitrile]	1	>10
CCC(=O)N1CCN(c2nc(-c3cnn(C)c3)ncc2C#N)C[C@H]1C [Compound 4-2, 4-[(3R)-3-methyl-4-propanoylpiperazin-1-yl]-2-(1-methyl-1H-pyrazol-4-yl)pyrimidine-5-carbonitrile]	0.26	>10
C[C@@H]1CN(c2nc(-c3cnn(C)c3)ncc2C#N)CCN1C(=O)C1CCC1 [Compound 4-3, 4-[(3R)-4-(cyclobutylcarbonyl)-3-methylpiperazin-1-yl]-2-(1-methyl-1H-pyrazol-4-yl)pyrimidine-5-carbonitrile]	0.37	>10
C[C@@H]1CN(c2nc(-c3cnn(C)c3)ncc2C#N)CCN1C(=O)C1(C)CC1 [Compound 4-4, 4-{(3R)-3-methyl-4-[(1-methylcyclopropyl)carbonyl]piperazin-1-yl}-2-(1-methyl-1H-pyrazol-4-yl)pyrimidine-5-carbonitrile]	1.1	>10
C[C@@H]1CN(c2nc(-c3cnn(C)c3)ncc2C#N)CCN1C(=O)C1CCC1(F)F (stereo partly drawn) [Compound 4-5, 4-{(3R)-4-[(2,2-difluorocyclobutyl)carbonyl]-3-methylpiperazin-1-yl}-2-(1-methyl-1H-pyrazol-4-yl)pyrimidine-5-carbonitrile]	0.55	>10
C[C@@H]1CN(c2nc(-c3cnn(C)c3)ncc2C#N)CCN1C(=O)C1CCCC1 [Compound 4-6, 4-[(3R)-4-(cyclopentylcarbonyl)-3-methylpiperazin-1-yl]-2-(1-methyl-1H-pyrazol-4-yl)pyrimidine-5-carbonitrile]	0.87	>10
C[C@@H]1CN(c2nc(C#N)cc(-c3cnn(C)c3)n2)CCN1C(=O)C1CC1 [Compound 5-2, 2-[(3R)-4-(cyclopropylcarbonyl)-3-methylpiperazin-1-yl]-6-(1-methyl-1H-pyrazol-4-yl)pyrimidine-4-carbonitrile]	0.24	>10
C[C@@H]1CN(c2cc(C#N)nc(-c3cnn(C)c3)n2)CCN1C(=O)C1CC1 [Compound 5-3, 6-[(3R)-4-(cyclopropylcarbonyl)-3-methylpiperazin-1-yl]-2-(1-methyl-1H-pyrazol-4-yl)pyrimidine-4-carbonitrile]	0.24	>10

These reach a lower IC50 (PI3Kdelta). Values come first.

IC50 (PI3Kdelta) [µM]	Selectivity versus PI3Kalpha (PI3Kalpha)	Structure (SMILES)
0.042	>10	N#Cc1cnc(-c2cn[nH]c2)nc1N1C[C@@H]2C[C@H]1CN2c1cccc(F)c1 [Compound 1-7, 4-[(1S,4S)-5-(3-fluorophenyl)-2,5-diazabicyclo[2.2.1]hept-2-yl]-2-(1H-pyrazol-4-yl)pyrimidine-5-carbonitrile]
0.031	>10	Cn1cc(-c2ncc(C#N)c(N3C[C@@H]4C[C@H]3CN4c3cccc(F)c3)n2)cn1 [Compound 1-16, 4-[(1S,4S)-5-(3-fluorophenyl)-2,5-diazabicyclo[2.2.1]hept-2-yl]-2-(1-methyl-1H-pyrazol-4-yl)pyrimidine-5-carbonitrile]
0.11	>10	C[C@@H]1CN(c2nc(-c3cnn(C)c3)ncc2C#N)CCN1C(=O)C1CC1 [Compound 4-1, 4-[(3R)-4-(cyclopropylcarbonyl)-3-methylpiperazin-1-yl]-2-(1-methyl-1H-pyrazol-4-yl)pyrimidine-5-carbonitrile]
0.087	>10	C[C@@H]1CN(c2nc(-c3cnn(C)c3)ncc2C#N)CCN1C(=O)C1CC12CCCC2 (stereo partly drawn) [Compound 4-7, 2-(1-methyl-1H-pyrazol-4-yl)-4-[(3R)-3-methyl-4-(spiro[2.4]hept-1-ylcarbonyl)piperazin-1-yl]pyrimidine-5-carbonitrile]
0.032	>10	C[C@@H]1C[C@H]1C(=O)N1CCN(c2nc(-c3cnn(C)c3)ncc2C#N)C[C@H]1C [Compound 4-8, 4-[(3R)-3-methyl-4-{[(1R,2R)-2-methylcyclopropyl]carbonyl}piperazin-1-yl]-2-(1-methyl-1H-pyrazol-4-yl)pyrimidine-5-carbonitrile]
0.08	>10	C[C@@H]1C[C@@H]1C(=O)N1CCN(c2nc(-c3cnn(C)c3)ncc2C#N)C[C@H]1C [Compound 4-9, 4-[(3R)-3-methyl-4-{[(1S,2R)-2-methylcyclopropyl]carbonyl}piperazin-1-yl]-2-(1-methyl-1H-pyrazol-4-yl)pyrimidine-5-carbonitrile]
0.078	>10	C[C@@H]1CN(c2nc(-c3cnn(C)c3)ncc2C#N)CCN1c1cccc([N+](=O)[O-])c1 [Compound 4-11, 4-[(3R)-3-methyl-4-(3-nitrophenyl)piperazin-1-yl]-2-(1-methyl-1H-pyrazol-4-yl)pyrimidine-5-carbonitrile]
0.086	>10	C[C@@H]1CN(c2nc(-c3cnn(C)c3)ncc2C#N)CCN1c1cccc(C#N)c1 [Compound 4-12, 4-[(3R)-4-(3-cyanophenyl)-3-methylpiperazin-1-yl]-2-(1-methyl-1H-pyrazol-4-yl)pyrimidine-5-carbonitrile]
0.03	>10	C[C@@H]1CN(c2nc(-c3cnn(C)c3)ncc2C#N)CCN1c1cccc(S(C)(=O)=O)c1 [Compound 4-13, 4-{(3R)-3-methyl-4-[3-(methylsulfonyl)phenyl]piperazin-1-yl}-2-(1-methyl-1H-pyrazol-4-yl)pyrimidine-5-carbonitrile]
0.019	>10	C[C@@H]1CN(c2ncc(C#CCO)c(-c3cnn(C)c3)n2)CCN1C(=O)C1CC1 [Compound 5-1, 3-{2-[(3R)-4-(cyclopropylcarbonyl)-3-methylpiperazin-1-yl]-4-(1-methyl-1H-pyrazol-4-yl)pyrimidin-5-yl}prop-2-yn-1-ol]
0.021	>10	C[C@@H]1CN(c2ncc(C#N)c(-c3cnn(C)c3)n2)CCN1C(=O)C1CC1 [Compound 5-4, 2-[(3R)-4-(cyclopropylcarbonyl)-3-methylpiperazin-1-yl]-4-(1-methyl-1H-pyrazol-4-yl)pyrimidine-5-carbonitrile]
